Test results as given in patent US20240252677A1, “ONE-COMPONENT DELIVERY SYSTEM FOR NUCLEIC ACIDS” (The Trustees of the University of Pennsylvania, priority 2021, published 2024).

Tests used:
spleen = assay: In vivo mRNA delivery, IVIS imaging of organs: spleen; set-up: species or system mice; key to Organs with luminescence: spleen: strong: Strong meant the luminescence intensity in that organ was relatively high, compared to other organs; weak: Weak meant the luminescence intensity in that organ was relatively low, compared to other organs; conditions: Table 17; mice, IVIS, 4-6 h after injection; intensity relative to other organs
Procedure: The exposure time was 1 min.
Tissue luminescence signal was measured on the IVIS imaging system using an exposure time of 60 seconds using medium binning (binning=8) to ensure that the signal obtained was within operative detection range. […] Bioluminescence imaging was performed as described above.
Tissue luminescence signal was measured on the IVIS imaging system using a certain exposure time (60, 30 or 15 seconds) and medium binning (binning=8) to ensure that the signal obtained was within operative detection range.

HEK293T cells = assay: In vitro Luc-mRNA transfection, luciferase luminescence expression in HEK293T cells; type: cell-based, human; set-up: unit not given here; conditions: Table 16; HEK 293T cells, 125 ng/well, n=3
Summary of the method: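 HEK293T cells were transfected with nucleoside-modified firefly luciferase mRNA at 125 ng/well delivered in the test particles. TransIT and MC3-based LNPs at equal mRNA dose served as comparators. After 24 h (18-20 h in some runs) at 37° C the cells were lysed, and luciferase luminescence was read on a luminometer, in triplicate.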

SMILES	Organs with luminescence: spleen (spleen)	Luminescence (HEK293T cells)
CCCCCCCCCCCOc1cc(COC(=O)c2cc(OCCOCCOCCCC(=O)CCCN3CCCCC3)c(OCCOCCOCCOCc3ccccc3)c(OCCOCCOCCOC(=O)CCCN3CCCCC3)c2)cc(OCCCCCCCCCCC)c1 [IAJD 111]	spleen (weak)	41
CCCCCCCCCCCOc1cc(COC(=O)CCCN2CCN(CCO)CC2)cc(OCCCCCCCC)c1 [IAJD 113, 3-(Octyloxy)-5-(undecyloxy)benzyl 4-(4-(2-hydroxyethyl)piperazin-1-yl)butanoate]	Spleen (strong)	78,118
CCCCCCCCCCCOc1cc(COC(=O)CCCN2CCN(C)CC2)cc(OCCCCCCCCCC)c1 [IAJD 114, 3-(Decyloxy)-5-(undecyloxy)benzyl 4-(4-methylpiperazin-1-yl)butanoate]	spleen (strong)	1,580
CCCCCCCCCCCOc1cc(COC(=O)CCCN2CCN(CCO)CC2)cc(OCCCCCCCCCC)c1 [IAJD 115, 3-(Decyloxy)-5-(undecyloxy)benzyl 4-(4-(2-hydroxyethyl)piperazin-1-yl)butanoate]	spleen (strong)	390,021
CCCCCCCCCCCCCOc1cc(COC(=O)CCCN2CCN(C)CC2)cc(OCCCCCCCCCCC)c1 [IAJD 116, 3-(Tridecyloxy)-5-(undecyloxy)benzyl 4-(4-methylpiperazin-1-yl)butanoate]	spleen (strong)	192,213
CCCCCCCCCCCCCOc1cc(COC(=O)CCCN2CCN(CCO)CC2)cc(OCCCCCCCCCCC)c1 [IAJD 117, 3-(Tridecyloxy)-5-(undecyloxy)benzyl 4-(4-(2-hydroxyethyl)piperazin-1-yl)butanoate]	spleen (strong)	516,522
CCCCCCCCCCCCCCCOc1cc(COC(=O)CCCN2CCN(C)CC2)cc(OCCCCCCCCCCC)c1 [IAJD 118, 3-(Pentadecyloxy)-5-(undecyloxy)benzyl 4-(4-methylpiperazin-1-yl)butanoate]	spleen (strong)	568,354
CCCCCCCCCCCCCCCOc1cc(COC(=O)CCCN2CCN(CCO)CC2)cc(OCCCCCCCCCCC)c1 [IAJD 119, 3-(Pentadecyloxy)-5-(undecyloxy)benzyl 4-(4-(2-hydroxyethyl)piperazin-1-yl)butanoate]	spleen (strong)	565,906
CCCCCCCCCCCCCCCCOc1cc(COC(=O)CCCN2CCN(CCO)CC2)cc(OCCCCCCCCCCC)c1 [IAJD 120, 3-(Hexadecyloxy)-5-(undecyloxy)benzyl 4-(4-(2-hydroxyethyl)piperazin-1-yl)butanoate]	Spleen (strong)	443,836
CCCCCCCCCCCOc1cc(COC(=O)CCCN2CCN(CCO)CC2)cc(OCCCCCCCCC)c1 [IAJD 122, 3-(Nonyloxy)-5-(undecyloxy)benzyl 4-(4-(2-hydroxyethyl)piperazin-1-yl)butanoate]	spleen (strong)	55,101
CCCCCCCCCCCCOc1cc(COC(=O)CCCN2CCN(CCO)CC2)cc(OCCCCCCCCCCC)c1 [IAJD 124, 3-(Dodecyloxy)-5-(undecyloxy)benzyl 4-(4-(2-hydroxyethyl)piperazin-1-yl)butanoate]	spleen (strong)	145,115
CCCCCCCCCCCCCCOc1cc(COC(=O)CCCN2CCN(CCO)CC2)cc(OCCCCCCCCCCC)c1 [IAJD 125, 3-(Tetradecyloxy)-5-(undecyloxy)benzyl 4-(4-(2-hydroxyethyl)piperazin-1-yl)butanoate]	spleen (strong)	119,405
CCCCCCCCCCCCCCCCCOc1cc(COC(=O)CCCN2CCN(C)CC2)cc(OCCCCCCCCCCC)c1 [IAJD 126, 3-(Heptadecyloxy)-5-(undecyloxy)benzyl 4-(4-methylpiperazin-1-yl)butanoate]	spleen (strong)	675
CCCCCCCCCCCCCCCCCOc1cc(COC(=O)CCCN2CCN(CCO)CC2)cc(OCCCCCCCCCCC)c1 [IAJD 127, 3-(Heptadecyloxy)-5-(undecyloxy)benzyl 4-(4-(2-hydroxyethyl)piperazin-1-yl)butanoate]	spleen (strong)	147,731
CCCCCCCCCCCCCCCCCCOc1cc(COC(=O)CCCN2CCN(CCO)CC2)cc(OCCCCCCCCCCC)c1 [IAJD 128, 3-(Octadecyloxy)-5-(undecyloxy)benzyl 4-(4-(2-hydroxyethyl)piperazin-1-yl)butanoate]	spleen (strong)	449,311
CCCCCCCCCCCOc1cc(COC(=O)CCCN2CCN(CCO)CC2)cc(OCC(CC)CCCC)c1 (stereo not drawn) [IAJD 130, 3-((2-Ethylhexyl)oxy)-5-(undecyloxy)benzyl 4-(4-(2-hydroxyethyl)piperazin-1-yl)butanoate]	spleen (strong)	76,345
CCCCCCCCCCCCCCOc1cc(CNC(=O)CCCN2CCN(C)CC2)cc(OCCCCCCCCCCC)c1 [IAJD 133, 4-(4-Methylpiperazin-1-yl)-N-(3-(tetradecyloxy)-5-(undecyloxy)benzyl)butanamide]	spleen (weak)	107,307
CCCCCCCCCCCCCCCOc1cc(COC(=O)CCCN2CCN(C)CC2)cc(OCC(CC)CCCC)c1 (stereo not drawn) [IAJD 135, 3-((2-Ethylhexyl)oxy)-5-(pentadecyloxy)benzyl 4-(4-methylpiperazin-1-yl)butanoate]	spleen (weak)	432
CCCCCCCCCCCCCCCOc1cc(COC(=O)CCCN2CCN(CCO)CC2)cc(OCC(CC)CCCC)c1 (stereo not drawn) [IAJD 136, 3-((2-Ethylhexyl)oxy)-5-(pentadecyloxy)benzyl 4-(4-(2-hydroxyethyl)piperazin-1-yl)butanoate]	spleen (strong)	283,656
CCCCCCCCCCCCCCCOc1cc(COC(=O)CCCN2CCN(CCO)CC2)cc(OCCCCCCCC)c1 [IAJD 138, 3-(Octyloxy)-5-(pentadecyloxy)benzyl 4-(4-(2-hydroxyethyl)piperazin-1-yl)butanoate]	spleen (strong)	102,620
CCCCCCCCCCCCCCCOc1cc(COC(=O)CCCN2CCN(C)CC2)cc(OCCCCCCCCCC)c1 [IAJD 141, 3-(Decyloxy)-5-(pentadecyloxy)benzyl 4-(4-methylpiperazin-1-yl)butanoate]	spleen (strong)	140,589
CCCCCCCCCCCCCCCOc1cc(COC(=O)CCCN2CCN(CCO)CC2)cc(OCCCCCCCCCC)c1 [IAJD 142, 3-(Decyloxy)-5-(pentadecyloxy)benzyl 4-(4-(2-hydroxyethyl)piperazin-1-yl)butanoate]	spleen (strong)	463,750
CCCCCCCCCCCCCCCOc1cc(COC(=O)CCCN2CCN(C)CC2)cc(OCCCCCCCCCCCC)c1 [IAJD 143, 3-(Dodecyloxy)-5-(pentadecyloxy)benzyl 4-(4-methylpiperazin-1-yl)butanoate]	spleen (strong)	71,851
CCCCCCCCCCCCCCCOc1cc(COC(=O)CCCN2CCN(CCO)CC2)cc(OCCCCCCCCCCCC)c1 [IAJD 144, 3-(Dodecyloxy)-5-(pentadecyloxy)benzyl 4-(4-(2-hydroxyethyl)piperazin-1-yl)butanoate]	spleen (strong)	253,672
CCCCCCCCCCCCCCCOc1cc(COC(=O)CCCN2CCN(C)CC2)cc(OCCCCCCCCCCCCC)c1 [IAJD 145, 3-(pentadecyloxy)-5-(tridecyloxy)benzyl 4-(4-methylpiperazin-1-yl)butanoate]	spleen (strong)	296
CCCCCCCCCCCCCCCOc1cc(COC(=O)CCCN2CCN(CCO)CC2)cc(OCCCCCCCCCCCCC)c1 [IAJD 146, 3-(Pentadecyloxy)-5-(tridecyloxy)benzyl 4-(4-(2-hydroxyethyl)piperazin-1-yl)butanoate]	spleen (strong)	50,625
CCCCCCCCCCCCCCCOc1cc(COC(=O)CCCN2CCN(C)CC2)cc(OCCCCCCCCCCCCCC)c1 [IAJD 147, 3-(Pentadecyloxy)-5-(tetradecyloxy)benzyl 4-(4-methylpiperazin-1-yl)butanoate]	spleen (strong)	5,844
CCCCCCCCCCCCCCCOc1cc(COC(=O)CCCN2CCN(CCO)CC2)cc(OCCCCCCCCCCCCCC)c1 [IAJD 148, 3-(Pentadecyloxy)-5-(tetradecyloxy)benzyl 4-(4-(2-hydroxyethyl)piperazin-1-yl)butanoate]	spleen (strong)	139,420
CCCCCCCCCCCCCCCCOc1cc(COC(=O)CCCN2CCN(C)CC2)cc(OCCCCCCCCCCCCCCC)c1 [IAJD 149, 3-(Hexadecyloxy)-5-(pentadecyloxy)benzyl 4-(4-methylpiperazin-1-yl)butanoate]	spleen (strong)	149,935
CCCCCCCCCCCCCCCCOc1cc(COC(=O)CCCN2CCN(CCO)CC2)cc(OCCCCCCCCCCCCCCC)c1 [IAJD 150, 3-(Hexadecyloxy)-5-(pentadecyloxy)benzyl 4-(4-(2-hydroxyethyl)piperazin-1-yl)butanoate]	spleen (strong)	134,225
